Experiments:
p110 delta = p110 delta (Homo sapiens (Human), UniProt O00329); assay: PI3K isoform inhibition assay, p110 delta (fluorescence polarization displacement); assay type: biochemical
p110 alpha = p110 alpha (Homo sapiens (Human), UniProt P42336); assay: PI3K isoform inhibition assay, p110 alpha (for alpha/delta selectivity); conditions: ratio of biochemical IC50 values
Method in brief: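 Fluorescence polarization displacement of a fluorescent PIP3 probe from GRP-1 detector by PI3K-formed PIP3; p110α/p85α at 40 ng/mL with 10 μM PIP2 substrate.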

Sequence of p110 delta (O00329 whole entry, canonical isoform): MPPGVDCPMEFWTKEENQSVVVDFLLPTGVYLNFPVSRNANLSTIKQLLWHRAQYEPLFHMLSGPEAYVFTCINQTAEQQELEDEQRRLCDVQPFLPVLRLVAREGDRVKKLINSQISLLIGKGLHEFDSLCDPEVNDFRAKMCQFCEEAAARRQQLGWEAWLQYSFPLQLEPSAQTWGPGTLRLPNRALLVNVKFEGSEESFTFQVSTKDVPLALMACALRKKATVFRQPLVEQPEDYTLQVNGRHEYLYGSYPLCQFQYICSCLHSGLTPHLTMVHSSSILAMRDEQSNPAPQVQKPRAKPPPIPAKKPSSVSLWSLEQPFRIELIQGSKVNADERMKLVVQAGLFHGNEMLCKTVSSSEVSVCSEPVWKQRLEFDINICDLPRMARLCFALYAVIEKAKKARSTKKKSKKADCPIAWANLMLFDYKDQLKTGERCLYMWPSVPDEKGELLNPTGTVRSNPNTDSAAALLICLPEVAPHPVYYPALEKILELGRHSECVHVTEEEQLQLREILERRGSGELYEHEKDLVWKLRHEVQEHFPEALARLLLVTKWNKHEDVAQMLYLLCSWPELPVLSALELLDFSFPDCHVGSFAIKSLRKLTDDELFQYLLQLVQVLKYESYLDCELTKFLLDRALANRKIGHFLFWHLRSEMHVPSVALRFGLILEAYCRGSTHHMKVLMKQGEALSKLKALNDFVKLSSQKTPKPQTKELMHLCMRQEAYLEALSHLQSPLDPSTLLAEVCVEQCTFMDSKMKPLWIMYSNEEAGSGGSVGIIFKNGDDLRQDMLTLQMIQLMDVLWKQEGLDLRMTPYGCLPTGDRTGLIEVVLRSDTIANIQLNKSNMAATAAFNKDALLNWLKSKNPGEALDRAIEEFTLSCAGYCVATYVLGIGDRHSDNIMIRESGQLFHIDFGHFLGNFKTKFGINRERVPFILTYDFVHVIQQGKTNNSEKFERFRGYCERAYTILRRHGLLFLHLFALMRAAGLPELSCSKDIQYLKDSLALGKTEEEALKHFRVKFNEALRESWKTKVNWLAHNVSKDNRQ
Sequence of p110 delta (P27986 whole entry partner, canonical isoform): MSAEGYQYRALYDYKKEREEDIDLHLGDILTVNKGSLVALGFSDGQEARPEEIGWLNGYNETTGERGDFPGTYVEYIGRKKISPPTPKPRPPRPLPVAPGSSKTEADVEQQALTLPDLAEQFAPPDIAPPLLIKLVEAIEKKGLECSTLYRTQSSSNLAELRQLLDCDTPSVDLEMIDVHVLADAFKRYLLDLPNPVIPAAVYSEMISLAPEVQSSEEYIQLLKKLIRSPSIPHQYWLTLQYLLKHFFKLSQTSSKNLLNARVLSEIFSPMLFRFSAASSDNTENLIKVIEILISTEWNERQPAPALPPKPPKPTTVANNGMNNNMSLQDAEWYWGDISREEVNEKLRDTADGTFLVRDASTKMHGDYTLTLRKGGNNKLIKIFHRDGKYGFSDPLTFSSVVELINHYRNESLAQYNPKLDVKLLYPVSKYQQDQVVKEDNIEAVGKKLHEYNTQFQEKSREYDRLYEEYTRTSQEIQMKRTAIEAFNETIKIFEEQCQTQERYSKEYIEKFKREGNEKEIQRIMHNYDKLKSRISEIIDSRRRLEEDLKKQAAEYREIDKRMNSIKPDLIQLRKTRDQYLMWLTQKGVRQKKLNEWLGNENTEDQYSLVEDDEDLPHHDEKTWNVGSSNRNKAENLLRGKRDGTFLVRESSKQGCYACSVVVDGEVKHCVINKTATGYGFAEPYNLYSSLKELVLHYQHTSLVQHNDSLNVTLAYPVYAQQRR
Sequence of p110 alpha (P42336 whole entry, canonical isoform): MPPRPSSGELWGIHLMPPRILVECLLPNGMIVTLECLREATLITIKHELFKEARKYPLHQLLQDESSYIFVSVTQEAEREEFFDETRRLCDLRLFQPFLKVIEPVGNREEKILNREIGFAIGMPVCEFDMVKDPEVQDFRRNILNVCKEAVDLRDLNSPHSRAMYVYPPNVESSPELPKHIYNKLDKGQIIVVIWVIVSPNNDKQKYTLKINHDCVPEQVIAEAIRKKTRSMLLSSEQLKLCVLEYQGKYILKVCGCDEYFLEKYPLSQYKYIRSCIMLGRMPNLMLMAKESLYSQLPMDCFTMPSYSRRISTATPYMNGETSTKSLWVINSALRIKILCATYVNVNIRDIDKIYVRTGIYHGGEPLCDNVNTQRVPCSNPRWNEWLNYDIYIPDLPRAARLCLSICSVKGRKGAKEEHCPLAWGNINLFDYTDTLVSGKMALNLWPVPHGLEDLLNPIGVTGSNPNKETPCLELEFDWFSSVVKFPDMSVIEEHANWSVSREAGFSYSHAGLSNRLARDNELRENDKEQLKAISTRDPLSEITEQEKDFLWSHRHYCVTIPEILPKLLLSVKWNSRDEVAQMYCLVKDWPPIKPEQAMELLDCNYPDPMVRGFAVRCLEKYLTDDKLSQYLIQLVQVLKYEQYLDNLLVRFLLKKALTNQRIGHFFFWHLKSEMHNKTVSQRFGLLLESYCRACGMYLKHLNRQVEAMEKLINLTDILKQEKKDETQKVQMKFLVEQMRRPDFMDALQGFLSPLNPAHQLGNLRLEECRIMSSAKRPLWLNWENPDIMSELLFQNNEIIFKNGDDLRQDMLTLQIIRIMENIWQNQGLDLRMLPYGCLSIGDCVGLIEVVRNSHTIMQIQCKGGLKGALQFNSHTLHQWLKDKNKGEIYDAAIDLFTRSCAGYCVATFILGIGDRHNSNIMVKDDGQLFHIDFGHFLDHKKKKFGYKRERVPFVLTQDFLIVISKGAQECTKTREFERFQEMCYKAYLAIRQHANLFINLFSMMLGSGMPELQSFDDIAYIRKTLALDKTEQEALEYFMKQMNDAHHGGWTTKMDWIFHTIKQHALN
Sequence of p110 alpha (P27986 whole entry partner, canonical isoform): as the sequence (P27986 whole entry partner, canonical isoform) above

## Cc1nc(-c2cn3c(n2)-c2ccc(N4CCCC45CCCN(C(C)C)C5)cc2OCC3)n(C(C)C)n1 (stereo not shown) [Example 337, 9-(7-isopropyl-1,7-diazaspiro[4.5]decan-1-yl)-2-(2-isopropyl-5-methyl-1,2,4-triazol-3-yl)-5,6-dihydroimidazo[1,2-d][1,4]benzoxazepine]
p110 delta
  IC50: 1.52 nM
p110 alpha
  IC50 p110 alpha/IC50 p110 delta: 47.9

## Cc1nc(-c2cn3c(n2)-c2cc([C@@H](C)N4CCN(C(C)C)CC4)c(F)cc2OCC3)n(C(C)C)n1 [Example 338, (R)-9-fluoro-2-(1-isopropyl-3-methyl-1H-1,2,4-triazol-5-yl)-10-(1-(4-isopropylpiperazin-1-yl)ethyl)-5,6-dihydrobenzo[f]imidazo[1,2-d][1,4]oxazepine]
p110 delta
  IC50: 1.48 nM
p110 alpha
  IC50 p110 alpha/IC50 p110 delta: 114

## CCN(CC)C1CCOC(c2c(-c3ccc4c(c3)OCCn3cc(-c5nc(C)nn5C(C)C)nc3-4)cnn2C)C1 (stereo not shown) [Example 339, N,N-diethyl-2-[4-[2-(2-isopropyl-5-methyl-1,2,4-triazol-3-yl)-5,6-dihydroimidazo[1,2-d][1,4]benzoxazepin-9-yl]-2-methyl-pyrazol-3-yl]tetrahydropyran-4-amine]
p110 delta
  IC50: 1.07 nM
p110 alpha
  IC50 p110 alpha/IC50 p110 delta: 61.5

## Cc1nc(-c2cn3c(n2)-c2cc([C@H](C)N4CCN(C(C)C)CC4)c(F)cc2OCC3)n(C(C)C)n1 [Example 340, (S)-9-fluoro-2-(1-isopropyl-3-methyl-1H-1,2,4-triazol-5-yl)-10-(1-(4-isopropylpiperazin-1-yl)ethyl)-5,6-dihydrobenzo[f]imidazo[1,2-d][1,4]oxazepine]
p110 delta
  IC50: 2.32 nM
p110 alpha
  IC50 p110 alpha/IC50 p110 delta: 25.8

## CCN(CC)C1CCOC(c2c(-c3ccc4c(c3)OCCn3cc(-c5nc(C)nn5C(C)C)nc3-4)cnn2C)C1 (stereo not shown) [Example 341, N,N-diethyl-2-[4-[2-(2-isopropyl-5-methyl-1,2,4-triazol-3-yl)-5,6-dihydroimidazo[1,2-d][1,4]benzoxazepin-9-yl]-2-methyl-pyrazol-3-yl]tetrahydropyran-4-amine]
p110 delta
  IC50: 0.771 nM
p110 alpha
  IC50 p110 alpha/IC50 p110 delta: 71.1

## Cc1nc(-c2cn3c(n2)-c2ccc(N4CCC4[C@@H]4CCCN(C(C)C)C4)cc2OCC3)n(C(C)C)n1 (stereo partly drawn) [Example 342, 2-(1-isopropyl-3-methyl-1H-1,2,4-triazol-5-yl)-9-(2-((R)-1-isopropylpiperidin-3-yl)azetidin-1-yl)-5,6-dihydrobenzo[f]imidazo[1,2-d][1,4]oxazepine]
p110 delta
  IC50: 0.16 nM
p110 alpha
  IC50 p110 alpha/IC50 p110 delta: 21.3

## Cc1nc(-c2cn3c(n2)-c2ccc(-c4cnn(C)c4C4CC(N(C)C(C)C)CCO4)cc2OCC3)n(C(C)C)n1 (stereo not shown) [Example 343, N-isopropyl-2-[4-[2-(2-isopropyl-5-methyl-1,2,4-triazol-3-yl)-5,6-dihydroimidazo[1,2-d][1,4]benzoxazepin-9-yl]-2-methyl-pyrazol-3-yl]-N-methyl-tetrahydropyran-4-amine]
p110 delta
  IC50: 0.939 nM
p110 alpha
  IC50 p110 alpha/IC50 p110 delta: 53

## Cc1nc(-c2cn3c(n2)-c2ccc(-c4cnn(C)c4C4CC(N(C)C(C)C)CCO4)cc2OCC3)n(C(C)C)n1 (stereo not shown) [Example 344, N-isopropyl-2-[4-[2-(2-isopropyl-5-methyl-1,2,4-triazol-3-yl)-5,6-dihydroimidazo[1,2-d][1,4]benzoxazepin-9-yl]-2-methyl-pyrazol-3-yl]-N-methyl-tetrahydropyran-4-amine]
p110 delta
  IC50: 1.23 nM
p110 alpha
  IC50 p110 alpha/IC50 p110 delta: 66

## Cc1nc(-c2cn3c(n2)-c2cc(C(C)N4CCN(C5COC5)CC4)c(C)cc2OCC3)n(C(C)C)n1 (stereo not shown) [Example 345, 2-(2-isopropyl-5-methyl-1,2,4-triazol-3-yl)-9-methyl-10-[1-[4-(oxetan-3-yl)piperazin-1-yl]ethyl]-5,6-dihydroimidazo[1,2-d][1,4]benzoxazepine]
p110 delta
  IC50: 8.82 nM
p110 alpha
  IC50 p110 alpha/IC50 p110 delta: 14.3

## Cc1nc(-c2cn3c(n2)-c2ccc(N4CCCC4CN(C)C)cc2OCC3)n(C(C)C)n1 (stereo not shown) [Example 346, 1-[1-[2-(2-isopropyl-5-methyl-1,2,4-triazol-3-yl)-5,6-dihydroimidazo[1,2-d][1,4]benzoxazepin-9-yl]pyrrolidin-2-yl]-N,N-dimethyl-methanamine]
p110 delta
  IC50: 0.288 nM
p110 alpha
  IC50 p110 alpha/IC50 p110 delta: 23

## Cc1nc(-c2cn3c(n2)-c2cc([C@@H](C)N4CCN(C(C)(C)CO)CC4)c(F)cc2OCC3)n(C(C)C)n1 [Example 347, (R)-2-(4-(1-(9-fluoro-2-(1-isopropyl-3-methyl-1H-1,2,4-triazol-5-yl)-5,6-dihydrobenzo[f]imidazo[1,2-d][1,4]oxazepin-10-yl)ethyl)piperazin-1-yl)-2-methylpropan-1-ol]
p110 delta
  IC50: 5.53 nM
p110 alpha
  IC50 p110 alpha/IC50 p110 delta: 47.5

## Cc1nc(-c2cn3c(n2)-c2ccc(N4CCCC4CN(C)C)cc2OCC3)n(C(C)C)n1 (stereo not shown) [Example 348, 1-[1-[2-(2-isopropyl-5-methyl-1,2,4-triazol-3-yl)-5,6-dihydroimidazo[1,2-d][1,4]benzoxazepin-9-yl]pyrrolidin-2-yl]-N,N-dimethyl-methanamine]
p110 delta
  IC50: 0.445 nM
p110 alpha
  IC50 p110 alpha/IC50 p110 delta: 31.4

## Cc1nc(-c2cn3c(n2)-c2cc(C(C)N4CCN(CC(C)(C)O)CC4)c(C)cc2OCC3)n(C(C)C)n1 (stereo not shown) [Example 349, 1-[4-[1-[2-(2-isopropyl-5-methyl-1,2,4-triazol-3-yl)-9-methyl-5,6-dihydroimidazo[1,2-d][1,4]benzoxazepin-l0-yl]ethyl]piperazin-1-yl]-2-methyl-propan-2-ol]
p110 delta
  IC50: 4.21 nM
p110 alpha
  IC50 p110 alpha/IC50 p110 delta: 18.1

## Cc1nc(-c2cn3c(n2)-c2cc([C@H](C)N4CCN(C(C)(C)CO)CC4)c(F)cc2OCC3)n(C(C)C)n1 [Example 350, (S)-2-(4-(1-(9-fluoro-2-(1-isopropyl-3-methyl-1H-1,2,4-triazol-5-yl)-5,6-dihydrobenzo[f]imidazo[1,2-d][1,4]oxazepin-10-yl)ethyl)piperazin-1-yl)-2-methylpropan-1-ol]
p110 delta
  IC50: 1.99 nM
p110 alpha
  IC50 p110 alpha/IC50 p110 delta: 212

## Cc1nc(-c2cn3c(n2)-c2cc(-c4ccnn4[C@@H]4CCCN(C5COC5)C4)c(F)cc2OCC3)n(C(C)C)n1 [Example 351, (R)-9-fluoro-2-(1-isopropyl-3-methyl-1H-1,2,4-triazol-5-yl)-10-(1-(1-(oxetan-3-yl)piperidin-3-yl)-1H-pyrazol-5-yl)-5,6-dihydrobenzo[f]imidazo[1,2-d][1,4]oxazepine]
p110 delta
  IC50: 2.21 nM
p110 alpha
  IC50 p110 alpha/IC50 p110 delta: 16.6

## Cc1nc(-c2cn3c(n2)-c2cc(-c4ccnn4[C@H]4CCCN(C5COC5)C4)c(F)cc2OCC3)n(C(C)C)n1 [Example 352, (S)-9-fluoro-2-(1-isopropyl-3-methyl-1H-1,2,4-triazol-5-yl)-10-(1-(1-(oxetan-3-yl)piperidin-3-yl)-1H-pyrazol-5-yl)-5,6-dihydrobenzo[f]imidazo[1,2-d][1,4]oxazepine]
p110 delta
  IC50: 11.5 nM
p110 alpha
  IC50 p110 alpha/IC50 p110 delta: 18

## Cc1nc(-c2cn3c(n2)-c2cc(-c4ccnn4C4CCCN(C(C)(C)CO)C4)c(F)cc2OCC3)n(C(C)C)n1 [Example 353, (R)-2-(3-(5-(9-fluoro-2-(1-isopropyl-3-methyl-1H-1,2,4-triazol-5-yl)-5,6-dihydrobenzo[f]imidazo[1,2-d][1,4]oxazepin-10-yl)-1H-pyrazol-1-yl)piperidin-1-yl)-2-methylpropan-1-ol]
p110 delta
  IC50: 0.314 nM
p110 alpha
  IC50 p110 alpha/IC50 p110 delta: 151

## Cc1nc(-c2cn3c(n2)-c2cc(-c4cnn(C)c4C4CC(N(C)C)CCO4)c(F)cc2OCC3)n(C(C)C)n1 (stereo not shown) [Example 354, 2-[4-[9-fluoro-2-(2-isopropyl-5-methyl-1,2,4-triazol-3-yl)-5,6-dihydroimidazo[1,2-d][1,4]benzoxazepin-10-yl]-2-methyl-pyrazol-3-yl]-N,N-dimethyl-tetrahydropyran-4-amine]
p110 delta
  IC50: 0.66 nM
p110 alpha
  IC50 p110 alpha/IC50 p110 delta: 14.5

## Cc1nc(-c2cn3c(n2)-c2cc(-c4ccnn4C4CCCN(C(C)(C)CO)C4)c(F)cc2OCC3)n(C(C)C)n1 [Example 355, (R)-2-(3-(5-(9-fluoro-2-(1-isopropyl-3-methyl-1H-1,2,4-triazol-5-yl)-5,6-dihydrobenzo[f]imidazo[1,2-d][1,4]oxazepin-10-yl)-1H-pyrazol-1-yl)piperidin-1-yl)-2-methylpropan-1-ol]
p110 delta
  IC50: 0.415 nM
p110 alpha
  IC50 p110 alpha/IC50 p110 delta: 46.4

## COc1cc2c(cc1[C@@H](C)N1CCN(C(C)(C)C)CC1)-c1nc(-c3nc(C)nn3C(C)C)cn1CCO2 [Example 356, (R)-10-(1-(4-tert-butylpiperazin-1-yl)ethyl)-2-(1-isopropyl-3-methyl-1H-1,2,4-triazol-5-yl)-9-methoxy-5,6-dihydrobenzo[f]imidazo[1,2-d][1,4]oxazepine]
p110 delta
  IC50: 1.05 nM
p110 alpha
  IC50 p110 alpha/IC50 p110 delta: 45.5

## COc1cc2c(cc1[C@H](C)N1CCN(C(C)(C)C)CC1)-c1nc(-c3nc(C)nn3C(C)C)cn1CCO2 [Example 357, (S)-10-(1-(4-tert-butylpiperazin-1-yl)ethyl)-2-(1-isopropyl-3-methyl-1H-1,2,4-triazol-5-yl)-9-methoxy-5,6-dihydrobenzo[f]imidazo[1,2-d][1,4]oxazepine]
p110 delta
  IC50: 0.784 nM
p110 alpha
  IC50 p110 alpha/IC50 p110 delta: 116

## Cc1nc(-c2cn3c(n2)-c2cc(-c4cnn(C)c4C4CCCN(C(C)C)C4)c(F)cc2OCC3)n(C(C)C)n1 (stereo not shown) [Example 358, 9-fluoro-2-(2-isopropyl-5-methyl-1,2,4-triazol-3-yl)-10-[5-(1-isopropyl-3-piperidyl)-1-methyl-pyrazol-4-yl]-5,6-dihydroimidazo[1,2-d][1,4]benzoxazepine]
p110 delta
  IC50: 1.56 nM
p110 alpha
  IC50 p110 alpha/IC50 p110 delta: 67.1

## Cc1nc(-c2cn3c(n2)-c2cc(-c4cnn(C)c4C4CCCN(C(C)C)C4)c(F)cc2OCC3)n(C(C)C)n1 (stereo not shown) [Example 359, 9-fluoro-2-(2-isopropyl-5-methyl-1,2,4-triazol-3-yl)-10-[5-(1-isopropyl-3-piperidyl)-1-methyl-pyrazol-4-yl]-5,6-dihydroimidazo[1,2-d][1,4]benzoxazepine]
p110 delta
  IC50: 0.37 nM
p110 alpha
  IC50 p110 alpha/IC50 p110 delta: 54.1
